The nature of data set [1]: refractive index (Na D-line) (dimensionless). The conditions noted are these: 101.33 kPa, Liquid, Standard Abbe refractometry.
The conditions of data set [2]: 101.33 kPa, Liquid, Vibrating tube method.

Numbers after ± are expanded uncertainties.

This passage reports refractive index and mass density results from the NIST ThermoML archive (doi:10.1016/j.jct.2012.04.015).

As for `CCCCCC[n+]1ccn(C)c1.O=S(=O)([N-]S(=O)(=O)C(F)(F)F)C(F)(F)F`, in data set [1] (298.15 K), the refractive index was determined as 1.43016 ± 0.00037. In data set [2] (298.15 K), the mass density is given as 1371.99 ± 0.55 kg/m3.

In the case of `CCCCn1cc[n+](C)c1.O=S(=O)([O-])C(F)(F)F` [1-butyl-3-methylimidazolium trifluoromethanesulfonate], the refractive index in data set [1] (298.15 K) was 1.43895 ± 0.00037. In data set [2] (298.15 K), the mass density is reported as 1303.63 ± 0.49 kg/m3.

Regarding `CCCCCCn1cc[n+](C)c1.O=S(=O)([O-])C(F)(F)F` [1-hexyl-3-methylimidazolium trifluoromethanesulfonate], the refractive index in data set [1] (303.15 K) is given as 1.43926 ± 0.00037. For the same compound, the mass density in data set [2] (303.15 K) worked out at 1232.55 ± 0.43 kg/m3.

As to `C1CCCCC1` [cyclohexane], in data set [1] (298.15 K), the refractive index is on record as 1.42356 ± 0.00031. In addition, the mass density in data set [2] (298.15 K) is given as 773.88 ± 0.13 kg/m3.

Turning to `CCCCCCC` [heptane], in data set [1] (298.15 K), the refractive index was 1.38529 ± 0.00033. Moreover, the mass density in data set [2] (298.15 K) is recorded as 679.57 ± 0.18 kg/m3.

Turning to `Cc1ccccc1` [toluene], the refractive index in data set [1] (298.15 K) is on record as 1.49398 ± 0.00031. The mass density in data set [2] (298.15 K) was determined as 862.23 ± 0.1 kg/m3.
